The values that follow come from publication PMC8536575, “Acute effects of the imidacloprid metabolite desnitro-imidacloprid on human nACh receptors relevant for neuronal signaling” (Archives of Toxicology, 2021).

SMILES strings stand for the structures. Some results are limits rather than exact numbers.

For data set [1], the target named is T1, human α7 nAChR (Homo sapiens, UniProt P36544).
T1 construct: expressed in transfected cells; host or cells: Xenopus laevis oocytes, injection of 30 ng mRNA (pCDNA3.1, T7 transcript)
In words: Two-electrode voltage-clamp recordings, Xenopus laevis oocytes expressing human α7 nAChR. It is filed as cell-based.

Data set [2] addresses T2, human α4β4 nAChR (Homo sapiens, UniProt P30926+P43681).
T2 construct: expressed in transfected cells; host or cells: Xenopus laevis oocytes, mRNA injection, 3.33 ng α4 and 3.33 ng β4
In words: Two-electrode voltage-clamp recordings, Xenopus laevis oocytes expressing human α4β4 nAChR. Type of data set: cell-based. From the text: The human α7 nAChR subunit was cloned in the pCDNA3.1 vector.
For the generation of the mRNA for injection, the plasmid DNAs of α3, α4, β2, and β4 were linearized with the NotI restriction endonuclease (New England Biolabs) and the plasmid DNA of α7 was linearized with the XbaI restriction endonuclease (New England Biolabs). The mRNAs of α3, α4, β2, and β4 were generated by in vitro transcription using the mMESSAGE mMACHINE SP6 Transcription Kit (Invitrogen). For the generation of α7 mRNA, the mMESSAGE mMACHINE T7 Transcription Kit (Invitrogen) was used. For the separation of the DNA and mRNA, a phenol–chloroform extraction (Chomczynski and Sacchi [2006]) was performed. The mRNA was then obtained by ethanol precipitation from the aqueous phase; for quantification, the BioPhotometer (Eppendorf) was used.
The recordings of human α7, α3β4, α4β2, and α4β4 nAChRs expressed in Xenopus laevis oocytes (EcoCyte Bioscience) were performed in two-electrode voltage-clamp mode using the Roboocyte2 system and the corresponding software (version 1.4.1; Multi Channel Systems MCS). Prior to the recordings, the oocytes were maintained at 19 °C in modified Barth’s solution containing [mM]: 88 NaCl, 1 KCl, 0.33 Ca(NO3)2, 0.82 MgSO4, 2.4 NaHCO3, 0.41 CaCl2, 5 Tris, 100 U/ml penicillin, 100 µg/ml streptomycin, pH 7.4.
To express human α7 nAChR, we injected 50 nl of mRNA solution (30 ng mRNA) per oocyte, using the Roboinject and the corresponding software (version 1.2.1; Multi Channel Systems MCS). […]
The baseline correction of voltage-clamp oocyte recordings was performed with the Roboocyte2 + software (version 1.4.3; Multi Channel Systems MCS, Germany). The maximal current influx and further analysis were executed in scripts written in R. In the antagonist experiments with oocytes, the maximal inward current was determined for the last response of each period (control, three antagonist concentrations, and washout).

Data set [3] concerns Xenopus laevis oocytes without additional receptor expression. In words: Control recordings in oocytes without additional receptor expression. Type of data set: cell-based. The conditions noted are these: DN-IMI 30 µM, injection of water without mRNA, n = 5. The method, then:
First, we focused our experiments on the α4β2 receptor, which can assemble in two different stoichiometries. […] For control purposes, we applied DN-IMI (30 µM) to Xenopus laevis oocytes without additional receptor expression (injection of water without mRNA).

The nature of data set [4]: Clearance study in a hepatocyte co-culture system. The conditions noted are these: human, hepatocytes. From the text:
Renal clearance for DN-IMI was assumed to be governed only by passive processes, with both filtration and passive reabsorption being accounted for. Passive permeability was scaled from the predicted permeability in the intestine (Peff 0.37 10-4 cm/s) accounting for the surface area of the proximal tubules in the kidney.

Data set [5] in a line: Blood/plasma ratio and free fraction (PBTK input parameters). It is filed as in vitro ADME.
The conditions of data set [6]: monoprotic base; average of values; ref CHEMBL and ACD; cited from earlier work.

T1 sequence (P36544 23-502): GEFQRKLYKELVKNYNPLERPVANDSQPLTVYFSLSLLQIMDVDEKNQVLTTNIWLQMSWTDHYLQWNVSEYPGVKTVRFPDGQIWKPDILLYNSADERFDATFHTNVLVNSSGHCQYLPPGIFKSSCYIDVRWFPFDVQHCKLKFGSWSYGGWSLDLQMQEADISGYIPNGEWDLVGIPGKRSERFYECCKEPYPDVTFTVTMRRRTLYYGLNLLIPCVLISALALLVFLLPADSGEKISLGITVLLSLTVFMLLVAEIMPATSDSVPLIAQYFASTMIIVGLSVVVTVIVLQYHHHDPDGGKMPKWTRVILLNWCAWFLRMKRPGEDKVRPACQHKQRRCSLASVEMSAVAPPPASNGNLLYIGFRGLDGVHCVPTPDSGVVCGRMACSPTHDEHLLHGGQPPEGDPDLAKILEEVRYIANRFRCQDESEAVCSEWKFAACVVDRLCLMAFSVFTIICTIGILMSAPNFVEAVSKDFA
T2 sequence (P43681 27-627): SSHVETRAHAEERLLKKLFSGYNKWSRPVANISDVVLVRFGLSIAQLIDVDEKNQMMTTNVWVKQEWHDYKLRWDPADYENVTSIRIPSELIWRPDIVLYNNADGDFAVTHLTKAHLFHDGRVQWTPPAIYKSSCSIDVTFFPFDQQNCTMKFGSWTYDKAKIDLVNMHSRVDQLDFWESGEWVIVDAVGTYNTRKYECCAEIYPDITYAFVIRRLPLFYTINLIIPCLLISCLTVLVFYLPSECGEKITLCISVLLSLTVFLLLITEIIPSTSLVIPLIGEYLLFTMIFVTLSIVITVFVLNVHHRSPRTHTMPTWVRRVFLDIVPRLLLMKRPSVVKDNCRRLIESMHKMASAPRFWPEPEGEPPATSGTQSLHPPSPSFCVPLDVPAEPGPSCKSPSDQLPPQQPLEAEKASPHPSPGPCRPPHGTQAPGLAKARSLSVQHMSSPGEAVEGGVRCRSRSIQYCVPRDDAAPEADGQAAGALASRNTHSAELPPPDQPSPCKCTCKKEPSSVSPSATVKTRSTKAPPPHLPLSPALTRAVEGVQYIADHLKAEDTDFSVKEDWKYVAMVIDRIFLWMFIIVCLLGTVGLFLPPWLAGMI
T2 sequence (P30926 22-498): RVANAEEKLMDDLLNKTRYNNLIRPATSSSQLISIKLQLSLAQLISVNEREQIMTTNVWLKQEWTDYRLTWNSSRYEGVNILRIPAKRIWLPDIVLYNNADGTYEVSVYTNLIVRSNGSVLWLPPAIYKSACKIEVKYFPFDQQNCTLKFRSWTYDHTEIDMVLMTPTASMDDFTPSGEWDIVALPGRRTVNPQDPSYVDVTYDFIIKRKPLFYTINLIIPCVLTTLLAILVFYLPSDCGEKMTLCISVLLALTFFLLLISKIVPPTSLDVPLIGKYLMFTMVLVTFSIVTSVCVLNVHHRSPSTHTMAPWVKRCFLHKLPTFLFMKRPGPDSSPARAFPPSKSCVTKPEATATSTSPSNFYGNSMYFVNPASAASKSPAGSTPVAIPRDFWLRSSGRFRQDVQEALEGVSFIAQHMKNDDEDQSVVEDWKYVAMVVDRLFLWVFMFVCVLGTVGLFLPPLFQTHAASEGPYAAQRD

What is called hepatocyte CLint is the rate of metabolic loss divided by the concentration. A lower hepatocyte CLint goes with greater metabolic stability. As usually defined, the pKa is the negative logarithm of the acid dissociation constant. Take `NC1=NCCN1Cc1ccc(Cl)nc1` [DN-IMI, desnitro-imidacloprid]: the EC50 in data set [1] is 31.6 µM; in data set [2] (read-out: relative pEC50 (inward current amplitude) (converted)), 3.16 µM. Moreover, the “estimated maximum, % of the maximal response to nicotine” value in data set [1] is reported as ~ 81%. For the same compound, the “higher potency of DN-IMI than nicotine” value in data set [1] (EC25 comparison on the receptors other than α4β2 (HS): α7 and α3β4) is “about 0.6 log-steps”. For the same compound, the “absolute EC25” value in data set [1] (from curve-fitted concentration–response data) was determined as 7.6 µM. Further, the results for the estimated maximum in data set [1] (normalized to nicotine (1 mM)) and in data set [2] (normalized to nicotine (100 µM)) were ~ 0.81 and ~ 0.97, respectively. The Emax in data set [1] (read-out: estimated maximum, % of the maximal response to nicotine) is 83%. Moreover, in data set [3], the “current responses in oocytes without receptor expression” value is “did not detect any current responses”. This compound also yielded an intrinsic clearance (hepatocyte CLint) in data set [4] of under 143 µL/min/1e6 cells. For the same compound, in data set [5] (blood and plasma, read-out: Blood/plasma ration [B/P]), the blood plasma ratio turned out to be 0.759. Also, the fraction unbound in data set [5] (plasma, read-out: Free fraction [fu]) is 0.841. In data set [6], the pKa is listed as 9.6.
